Measurements from the OligoGym collection.
Values joined by “and” are separate entries in the source; they are usually repeats but may differ in a detail not shown here. Identical values can stand only once. After the bases stand the sugars from the 5' end (letter, count) and the backbone: PS all phosphorothioate, else s phosphorothioate and o phosphodiester by linkage. Methylation of C is not given here. e = 2'-O-(2-methoxyethyl) (MOE); k = constrained ethyl (cEt); d = 2'-deoxy (DNA)

Columns and labels:
MALAT1 = conditions: ASO, A431, 0.005 µM
IRF4 = conditions: ASO

| Sequence | target mRNA inhibition (MALAT1) | also measured |
| --- | --- | --- |
| CTTTAGGATTCTAGAC (sugars k3 d10 k3, PS) | 7% |  |
| TCCTGCGACTTGCTCC (sugars k3 d10 k3, PS) | 15% |  |
| CAGTAGGTATAGTTTA (sugars k3 d10 k3, PS) | -17% |  |
| AAGTGGTTGCCCGCTT (sugars k3 d10 k3, PS) | 22% |  |
| CAAGTAAGCCCCACCC (sugars k3 d10 k3, PS) | 26% |  |
| AACTAGCACCTGCAGA (sugars k3 d10 k3, PS) | 17% |  |
| TAACATGCAATACTGC (sugars k3 d10 k3, PS) | 18% |  |
| GGACAGTAGGTATAGT (sugars k3 d10 k3, PS) | 11% |  |
| CCAAATTAATGCACTG (sugars k3 d10 k3, PS) | 13% |  |
| TTTAAACGGGTCATCA (sugars k3 d10 k3, PS) | 10% |  |
| TCTAAGATTGTAAGCA (sugars k3 d10 k3, PS) | 53% |  |
| GGCCATCATACTGCCA (sugars k3 d10 k3, PS) | -19% |  |
| TTCAACTGGAAGCTCC (sugars k3 d10 k3, PS) | 58% and 57% |  |
| CGGAGAACAACTCGCA (sugars k3 d10 k3, PS) | -4% |  |
| AGCCAGTCAGGGACAC (sugars k3 d10 k3, PS) | -3% |  |
| TATTCCTTTCATAGAG (sugars k3 d10 k3, PS) | 11% |  |
| AAGCCCACCCTCTAAG (sugars k3 d10 k3, PS) | 21% |  |
| GGACTTGGCAGTCTGC (sugars k3 d10 k3, PS) | 27% |  |
| GTGAAAACCCACTCTT (sugars k3 d10 k3, PS) | 10% |  |
| AGTACGAAACTCCCCC (sugars k3 d10 k3, PS) | 28% |  |
| TAAGCAATATCTTAGT (sugars k3 d10 k3, PS) | 16% |  |

| Sequence | target mRNA inhibition (MALAT1) | also measured |
| --- | --- | --- |
| AAGCACTTATCCCTAA (sugars k3 d10 k3, PS) | 25% |  |
| CCACTTGCCAGTTTAA (sugars k3 d10 k3, PS) | 29% |  |
| TTTATAGACCCCTGAC (sugars k3 d10 k3, PS) | 22% |  |
| GTTAACAGCTGCCTGC (sugars k3 d10 k3, PS) | 7% |  |
| AACGGGTCATCAAACA (sugars k3 d10 k3, PS) | -25% |  |
| TAAGGAGACAGCTTTC (sugars k3 d10 k3, PS) | 16% |  |
| CCCACAAACTTGCCAT (sugars k3 d10 k3, PS) | 1% |  |
| GATTCTAACAGCACAT (sugars k3 d10 k3, PS) | 31% |  |
| TACAATCAAGTCAAGC (sugars k3 d10 k3, PS) | -2% |  |
| GGCTCGATGGAAAAAT (sugars k3 d10 k3, PS) | 33% |  |
| GTCTCGGGCTGCAGGC (sugars k3 d10 k3, PS) | -6% |  |
| GTCCTAGCTTCATCAA (sugars k3 d10 k3, PS) | 18% |  |
| ATCTAGGCCATCATAC (sugars k3 d10 k3, PS) | 32% |  |
| TAAGAGACATTCAAGC (sugars k3 d10 k3, PS) | 17% |  |
| ACCTTAACATCTTGTT (sugars k3 d10 k3, PS) | 15% |  |
| ACTGAACTGTTTAAAC (sugars k3 d10 k3, PS) | 6% |  |
| TATAGACCCCTGACTT (sugars k3 d10 k3, PS) | 42% |  |
| TTTTACCAACCACTCG (sugars k3 d10 k3, PS) | 31% |  |
| CTTCTAAGTTTGTACA (sugars k3 d10 k3, PS) | 47% |  |
| GCAGATAATGTTCTCA (sugars k3 d10 k3, PS) | 73% and 95% |  |
| GCTACCATCAGAAGAA (sugars k3 d10 k3, PS) | 22% |  |

| Sequence | target mRNA inhibition (MALAT1) | also measured |
| --- | --- | --- |
| TTGAGATGGACATTGC (sugars k3 d10 k3, PS) | 87% and 72% |  |
| TGCCAACTTGGAAGTT (sugars k3 d10 k3, PS) | 32% |  |
| TTCGCCTTCCCGTACT (sugars k3 d10 k3, PS) | 63% |  |
| ATTATATGCTCATCAC (sugars k3 d10 k3, PS) | 51% |  |
| GCCTCCTCAATCCACT (sugars k3 d10 k3, PS) | 16% |  |
| CCCTTCCCTATATAAG (sugars k3 d10 k3, PS) | 5% |  |
| CCAACCCCCAGTTCAA (sugars k3 d10 k3, PS) | 24% |  |
| AATGGTAGATTCCGTA (sugars k3 d10 k3, PS) | 47% |  |
| CTGCTACCTTCATCAC (sugars k3 d10 k3, PS) | 39% |  |
| GTGGCCTTGGCACACT (sugars k3 d10 k3, PS) | -10% |  |
| GTTACGAAAGTCCTTC (sugars k3 d10 k3, PS) | 45% |  |
| CAAGGATCCAAGCTAC (sugars k3 d10 k3, PS) | 19% |  |
| GCTAGCTTGGCCAAGT (sugars k3 d10 k3, PS) | 2% |  |
| GCCATGGAAAGCGAGT (sugars k3 d10 k3, PS) | 9% |  |
| CCACGGCCCGCACGGA (sugars k3 d10 k3, PS) | 6% |  |
| TTACCTTGAAACCGAT (sugars k3 d10 k3, PS) | 31% |  |
| ATTTATAGACCCCTGA (sugars k3 d10 k3, PS) | -8% |  |
| TAAATTACACCAGTCC (sugars k3 d10 k3, PS) | 44% |  |
| TCGGATGCTTCACTCC (sugars k3 d10 k3, PS) | 37% |  |
| GTTAAACTTATCTGTT (sugars k3 d10 k3, PS) | 41% |  |
| TAGAATCTTACTTGAT (sugars k3 d10 k3, PS) | 34% |  |

| Sequence | target mRNA inhibition (MALAT1) | also measured |
| --- | --- | --- |
| GGAACAAGTCCTACAA (sugars k3 d10 k3, PS) | 23% |  |
| GCCTTAAAGTTACATT (sugars k3 d10 k3, PS) | 10% |  |
| CTACTATTTCTCCAGG (sugars k3 d10 k3, PS) | 41% |  |
| GGAAAAGTGGTTGCCC (sugars k3 d10 k3, PS) | 24% |  |
| TTTTAGTCACTGGATA (sugars k3 d10 k3, PS) | 45% |  |
| TCCTGATCTGGTCCAT (sugars k3 d10 k3, PS) | 42% |  |
| TACTATTGTCCCATAA (sugars k3 d10 k3, PS) | 22% |  |
| GACCAACCCCCAGTTC (sugars k3 d10 k3, PS) | 3% |  |
| GTCCTTTACAGAAGTC (sugars k3 d10 k3, PS) | 35% |  |
| ATCTGCGGTTTCCTCA (sugars k3 d10 k3, PS) | 58% |  |
| TCCCAACCGTAACAGG (sugars k3 d10 k3, PS) | 2% |  |
| CGCCCGACCCTCCCCA (sugars k3 d10 k3, PS) |  | target mRNA inhibition (IRF4; MM.1R, 1 µM): -24% |
| TCAAACTATAATTGGC (sugars k3 d10 k3, PS) |  | target mRNA inhibition (IRF4; SK-MEL-28, 4 µM): 74% |
| AAGTGATAGGTATACT (sugars k3 d10 k3, PS) |  | target mRNA inhibition (IRF4; SK-MEL-28, 4 µM): 50% |
| ACTGGCATTGAGACGG (sugars k3 d10 k3, PS) |  | target mRNA inhibition (IRF4; SK-MEL-28, 4 µM): 72% and 79% |
| TCCAGGTGGCTCAGCA (sugars k3 d10 k3, PS) |  | target mRNA inhibition (IRF4; SK-MEL-28, 4 µM): 41% |
| AGTGATGTCAGGTTTT (sugars kkdddddddddekeke, PS) |  | target mRNA inhibition (IRF4; MM.1R, 1 µM): 33% |
| CTGCTTGAGGTTTTCC (sugars kddddddddddkekek, PS) |  | target mRNA inhibition (IRF4; MM.1R, 1 µM): 8% |
